Data as given in publication PMC9945177, “Nature-Derived Epoxy Resin Monomers with Reduced Sensitizing Capacity—Isosorbide-Based Bis-Epoxides” (Chemical Research in Toxicology, 2023).

Legend:
Female CBA/Ca mice = assay: murine local lymph node assay (LLNA); assay type: in vivo
Description: Female CBA/Ca mice, 7 to 9 weeks of age, were purchased from NOVA SCB Charles River, Germany. The mice were housed in HEPA-filtered air flow cages and kept on standard laboratory diet and water ad lib. The regional ethics committee, Jordbruksverket, approved the protocol and the procedure was performed in accordance with the guidelines.
A previously published protocol[24] of the LLNA[34] was used to assess the sensitization potential of the isosorbide bis-epoxides 1–3. The purity of the assessed isosorbide bis-epoxides was >99% (GC/MS or LC/MS) before testing of sensitization potential. The isosorbide bis-epoxides were tested in five different concentrations; 1: 3.9 mM (0.10% w/v), 39 mM (1.0% w/v), 190 mM (5.0% w/v), 390 mM (10% w/v), and 770 mM (20% w/v); 2: 21 mM (1.0% w/v), 54 mM (2.5% w/v), 110 mM (5.0% w/v), 210 mM (10% w/v), and 540 mM (25% w/v); and 3: 2.3 mM (0.10% w/v), 23 mM (1.0% w/v), 110 mM (5.0% w/v), 230 mM (10% w/v), and 460 mM (20% w/v). A detailed description is given in Supporting Information.
The three isosorbide bis-epoxides were evaluated for sensitization potential in vivo with the murine LLNA (Figure 2). The stimulation index (SI) is defined as the ratio between the dpm/lymph node for the test group and the control group. Test materials that at one or more concentrations cause an SI greater than 3 are considered positive in the LLNA. The estimated concentration required to induce an SI of 3 (EC3) is used to determine the sensitizing potency of the test compound. […] Isosorbide bis-epoxide 1 gave an EC3 value of 0.17 M (4.4%), 3 gave an EC3 value of 0.36 M (16%), and no EC3 value was obtained for 2 (for full results, see the Supporting Information, Table S1).
A previously published protocol1 of the LLNA2 was used to assess the sensitization potential of the isosorbide bis-epoxides 1-3. The purity of the assessed isosorbide bis-epoxides was >98% according to LC/MS analysis. The isosorbide bis-epoxides were tested in five different concentrations; 1: 3.87 mM […]
456 mM (20% w/v). Briefly, mice in groups of three received 25 µL of test compound dissolved in the vehicle acetone/olive oil (4:1 v/v), on the dorsum of the ears for three consecutive days (day 0, 1, and 2). A sixth group of four mice was treated with vehicle only (control group). On day 5, all mice were injected intravenously via the tail vein with 250 µL of phosphate buffered saline (PBS) (pH 7.4, 137 mM NaCl, 2.7 mM KCl, and 10 mM phosphate buffer) containing 20 µCi [methyl-3H]thymidine. Five hours later the mice were sacrificed, the draining lymph nodes were excised and pooled for each group, followed by preparation of single-cell suspensions of lymph nodes in PBS by using cell strainers (Falcon; BD Labware, Franklin Lakes, NJ, USA; pore size, 70 µm). Cell suspensions were washed twice with PBS, precipitated with trichloroacetic acid (TCA) (5%), and stored at 4 °C overnight. The samples were then centrifuged, resuspended in TCA (5%, 1 mL), and transferred to scintillation cocktail (10 mL) (EcoLume INC Radiochemicals, Solon, OH, USA). The incorporation of [methyl-3H]thymidine into DNA was measured by b-scintillation counting with a Beckman LS 6000TA instrument. Results are expressed as the mean dpm/lymph node for each experimental group and as stimulation index (SI). The SI is defined as the ratio between dpm/lymph node for the test group and the control group. Test materials that at one or more concentrations cause an SI greater than 3 are considered positive in the LLNA. EC3 values (the estimated concentration required to induce an SI of 3) were calculated by linear interpolation.
Results from the Local Lymph Node Assay
Table S1: Full results from the LLNA of bis-epoxides 1-3a
Test Test [3H]thymidine SI EC value

AcPHCKRM = assay: peptide depletion with AcPHCKRM; settings: peptide 1 mM, test compound 10 mM, DMSO/phosphate buffer pH 7.4 (1:1), room temperature
Description: Liquid chromatography-mass spectroscopy (LC-MS) analyses of peptide depletion experiments were performed using electrospray ionization (ESI) on a Hewlett-Packard 1100 HPLC/MS (Agilent Technologies, Waldbronn, Germany). The system included a vacuum degasser, a binary pump, an autoinjector, a column thermostat, a diode array detector, and a single quadrupole mass spectrometer. The high-performance liquid chromatography (HPLC) system was equipped with a HyPURITY C18 column (150 × 3 mm i.d., particle size 3 μm, Thermo Hypersil-Keystone, Thermo Electron Corp., Bellafonte, PA, USA). The mobile phase consisted of 0.005% pentafluoropropanoic acid, 0.1% acetic acid, and 5% acetonitrile in water (solvent A) and 0.005% pentafluoropropanoic acid, 0.1% acetic acid, and 50% water in acetonitrile (solvent B). […] The gradient conditions used were as follows: 0-8% B (0-3 min), 8-10% B (3-15 min), 10-100% B (15-18 min), 100% B (18-30 min), 100-0% B (30-30.1 min), 0% B (30.1-40 min). The ESI interface was used in positive ionization mode with the following spray chamber settings: nebulizer pressure, 35 psi; capillary voltage, 3000 V; drying gas temperature, 350 °C; and drying gas flow rate, 12 L/min. The fragmentor voltage was set to 120 V. The mass spectrometer was used in scan mode detecting molecular ions with m/z values ranging from 50 to 1800. All solvents were degassed with argon prior to use.

[1] = thermogravimetric analysis (TGA) of polymers formed with TETA; assay type: physicochemical; settings: polymer cured with TETA, TGA under nitrogen
Description: Detailed information on the polymerization procedure and the thermogravimetric analysis (TGA) is given in the Supporting Information.
Pilot experiments using TGA were conducted to investigate the properties of the polymers formed from isosorbide bis-epoxides 1–3 and the commonly used curing agent TETA (Table 2 and Figure 6). The onset of degradation is described by the initial decomposition temperature (IDT) and is an indication of the thermal stability of the cured epoxy resins. The maximum weight loss rate (Rmax) and the temperature (Tmax) at Rmax were taken from the peak values of the thermograms. The activation energies (Ea) for the decomposition of the polymers were calculated from the thermograms based on the Horowitz–Metzger equation.[43],[44]

[2] = estimated concentration required to induce an SI of 3, linear interpolation

## C1OC1CO[C@H]1CO[C@H]2[C@@H]1OC[C@H]2OCC1CO1 (stereo partly drawn) [Compound 1, (3R,3aR,6S,6aR)-3,6-O-Bis(3,4-epoxypropyl)-1,4:3,6-dianhydro-D-glucitol]
Female CBA/Ca mice; as printed in main text
  EC3 value (%): 4.4%
Female CBA/Ca mice; classified by EC3
  sensitizing potency classification: moderate (EC3 > 2%, moderate)
Female CBA/Ca mice; [2]
  EC3 value: 0.17 M
  EC3 value (% w/v): 4.40 % w/v
Female CBA/Ca mice; test concentration 0.10% w/v
  SI: 0.82
  [3H]thymidine incorporation (dpm/lymph node): 213 dpm/lymph node
Female CBA/Ca mice; test concentration 1.0% w/v
  SI: 1.41
  [3H]thymidine incorporation (dpm/lymph node): 367 dpm/lymph node
Female CBA/Ca mice; test concentration 5.0% w/v
  SI: 3.28
  [3H]thymidine incorporation (dpm/lymph node): 852 dpm/lymph node
Female CBA/Ca mice; test concentration 10% w/v
  SI: 12.2
  [3H]thymidine incorporation (dpm/lymph node): 3164 dpm/lymph node
Female CBA/Ca mice; test concentration 20% w/v
  SI: 15.8
  [3H]thymidine incorporation (dpm/lymph node): 4121 dpm/lymph node
AcPHCKRM
  reactivity with the model peptide AcPHCKRM: highest reactivity
[1]
  Ea (activation energy for the decomposition of the cured epoxy resins): 66.9 kcal/mol
  IDT (initial decomposition temperature): 362 °C
  Rmax (maximum weight loss rate): –3.24 %/°C
  Tmax (temperature at the maximum rate of weight loss): 380 °C
